Key:
[1] = Biodistribution of the mixture of three free tracers (not formulated as nano-emulsion), comparative; assay type: in vivo; details: FVB female mouse
Method: (§1) In the following examples, the radioactivity was counted with the TRiCarb Counter (Ref: Packard, Liquid Scintillation Analyzers; Models 2200CA).
(§2) Fluobeam 700 (Fluoptics) is the apparatus with which the whole of the organs from the biodistribution were analyzed in fluorescence as well as the one with which the biodistribution kinetics of the nano-emulsions were established in vivo. This imaging system allows viewing of the fluorescence in spectral bands from 700 to 850 nm for a 650 nm excitation. The apparatus consists of an electric case containing the laser of class 3B, its power supply and an optical head containing the CCD camera.
(§3) As a comparison, a mixture of three tracers ([3H]CHE, [14C]CO and DiD) (not formulated as a nano-emulsion) was injected in order to observe the distribution of the tracers in the absence of droplets being used as a distribution carrier.

[2] = Biodistribution of the nano-emulsion of Example 1.1 (radioactivity and fluorescence per organ); assay type: in vivo
Method: as §1, §2
as §3, with “The nano-emulsions of Example 1 were injected into FVB female and male mice. As” for “As”
Tables 6 to 14 provide the biodistribution results of each tracer ([3H]CHE, [14C]CO and DiD) expressed as a percentage of the dose injected per gram of tissue (or [3H]CHE and [14C]CO) or as fluorescence intensity (for DiD) depending on the organ of the mouse, 15 minutes (Table 6), 2 hours (Table 7), 4 hours (Table 8), 6 hours (Table 9), 16 hours (Table 10), 24 hours (Table 11), 72 hours (Table 12), 120 hours (Table 13) and 168 hours (Table 14), after injection into an FVB female mouse of the nano-emulsion of Example 1.1. (nano-emulsion according to the invention comprising the three tracers ([3H]CHE, [14C]CO and DiD).

[3] = 2 h after injection of free tracers (not nano-emulsion)
[4] = 6 h after injection of free tracers (not nano-emulsion)
[5] = 16 h after injection of free tracers (not nano-emulsion)
[6] = 24 h after injection of free tracers (not nano-emulsion)
[7] = 15 min after injection of nano-emulsion of Example 1.1, FVB female mouse
[8] = 2 h after injection of nano-emulsion of Example 1.1, FVB female mouse

biodistribution, Adrenal glands (MEAN) [1, 3]: 3.25 % of injected dose per gram of
biodistribution, Brain (MEAN) [1, 3]: 0.23 % of injected dose per gram of
biodistribution, Fat (MEAN) [1, 3]: 0.69 % of injected dose per gram of
biodistribution, Heart (MEAN) [1, 3]: 0.59 % of injected dose per gram of
biodistribution, Intestine (MEAN) [1, 3]: 0.76 % of injected dose per gram of
biodistribution, Kidney (MEAN) [1, 3]: 0.89 % of injected dose per gram of
biodistribution, Liver (MEAN) [1, 3]: 4.79 % of injected dose per gram of
biodistribution, Lung (MEAN) [1, 3]: 72.86 % of injected dose per gram of
biodistribution, Muscle (MEAN) [1, 3]: 0.38 % of injected dose per gram of
biodistribution, Ovary (MEAN) [1, 3]: 1.57 % of injected dose per gram of
biodistribution, Pancreas (MEAN) [1, 3]: 0.47 % of injected dose per gram of
biodistribution, Salivary gland (MEAN) [1, 3]: 0.74 % of injected dose per gram of
biodistribution, Spleen (MEAN) [1, 3]: 3.65 % of injected dose per gram of
biodistribution, Uterus (MEAN) [1, 3]: 0.49 % of injected dose per gram of
biodistribution, Adrenal glands (MEAN) [1, 4]: 3.56 % of injected dose per gram of
biodistribution, Brain (MEAN) [1, 4]: 0.26 % of injected dose per gram of
biodistribution, Fat (MEAN) [1, 4]: 1.05 % of injected dose per gram of
biodistribution, Heart (MEAN) [1, 4]: 1.21 % of injected dose per gram of
biodistribution, Intestine (MEAN) [1, 4]: 1.21 % of injected dose per gram of
biodistribution, Kidney (MEAN) [1, 4]: 1.36 % of injected dose per gram of
biodistribution, Liver (MEAN) [1, 4]: 5.53 % of injected dose per gram of
biodistribution, Lung (MEAN) [1, 4]: 142.66 % of injected dose per gram of
biodistribution, Muscle (MEAN) [1, 4]: 0.53 % of injected dose per gram of
biodistribution, Ovary (MEAN) [1, 4]: 2.12 % of injected dose per gram of
biodistribution, Pancreas (MEAN) [1, 4]: 0.76 % of injected dose per gram of
biodistribution, Salivary gland (MEAN) [1, 4]: 1.15 % of injected dose per gram of
biodistribution, Spleen (MEAN) [1, 4]: 3.53 % of injected dose per gram of
biodistribution, Uterus (MEAN) [1, 4]: 0.46 % of injected dose per gram of
biodistribution, Adrenal gland (MEAN) [1, 5]: 4.24 % of injected dose per gram of
biodistribution, Brain (MEAN) [1, 5]: 0.30 % of injected dose per gram of
biodistribution, Fat (MEAN) [1, 5]: 1.39 % of injected dose per gram of
biodistribution, Heart (MEAN) [1, 5]: 1.87 % of injected dose per gram of
biodistribution, Intestine (MEAN) [1, 5]: 1.09 % of injected dose per gram of
biodistribution, Kidney (MEAN) [1, 5]: 1.82 % of injected dose per gram of
biodistribution, Liver (MEAN) [1, 5]: 11.86 % of injected dose per gram of
biodistribution, Lung (MEAN) [1, 5]: 261.87 % of injected dose per gram of
biodistribution, Muscle (MEAN) [1, 5]: 0.43 % of injected dose per gram of
biodistribution, Ovary (MEAN) [1, 5]: 1.64 % of injected dose per gram of
biodistribution, Pancreas (MEAN) [1, 5]: 1.00 % of injected dose per gram of
biodistribution, Salivary gland (MEAN) [1, 5]: 1.29 % of injected dose per gram of
biodistribution, Spleen (MEAN) [1, 5]: 5.32 % of injected dose per gram of
biodistribution, Uterus (MEAN) [1, 5]: 1.00 % of injected dose per gram of
biodistribution, Adrenal gland (MEAN) [1, 6]: 2.60 % of injected dose per gram of
biodistribution, Brain (MEAN) [1, 6]: 0.22 % of injected dose per gram of
biodistribution, Fat (MEAN) [1, 6]: 1.64 % of injected dose per gram of
biodistribution, Heart (MEAN) [1, 6]: 0.82 % of injected dose per gram of
biodistribution, Intestine (MEAN) [1, 6]: 0.81 % of injected dose per gram of
biodistribution, Kidney (MEAN) [1, 6]: 1.02 % of injected dose per gram of
biodistribution, Liver (MEAN) [1, 6]: 3.29 % of injected dose per gram of
biodistribution, Lung (MEAN) [1, 6]: 29.91 % of injected dose per gram of
biodistribution, Muscle (MEAN) [1, 6]: 0.79 % of injected dose per gram of
biodistribution, Ovary (MEAN) [1, 6]: 1.40 % of injected dose per gram of
biodistribution, Pancreas (MEAN) [1, 6]: 0.95 % of injected dose per gram of
biodistribution, Salivary gland (MEAN) [1, 6]: 0.86 % of injected dose per gram of
biodistribution, Spleen (MEAN) [1, 6]: 2.27 % of injected dose per gram of
biodistribution, Uterus (MEAN) [1, 6]: 0.62 % of injected dose per gram of
accumulation of the free radioactive tracers in the lungs ([1]; Tables 2 to 5 (2 to 24 h), free tracers): strong accumulation
biodistribution, Adrenal glands (MEAN) [2, 7]: 10.18 % of injected dose per gram of
biodistribution, Brain (MEAN) [2, 7]: 0.499 % of injected dose per gram of
biodistribution, Fat (MEAN) [2, 7]: 1.15 % of injected dose per gram of
biodistribution, Heart (MEAN) [2, 7]: 8.676 % of injected dose per gram of
biodistribution, Intestine (MEAN) [2, 7]: 1.75 % of injected dose per gram of
biodistribution, Kidney (MEAN) [2, 7]: 4.20 % of injected dose per gram of
biodistribution, Liver (MEAN) [2, 7]: 8.86 % of injected dose per gram of
biodistribution, Lung (MEAN) [2, 7]: 3.92 % of injected dose per gram of
biodistribution, Muscle (MEAN) [2, 7]: 0.744 % of injected dose per gram of
biodistribution, Ovary (MEAN) [2, 7]: 4.59 % of injected dose per gram of
biodistribution, Pancreas (MEAN) [2, 7]: 1.262 % of injected dose per gram of
biodistribution, Salivary glands (MEAN) [2, 7]: 1.057 % of injected dose per gram of
biodistribution, Spleen (MEAN) [2, 7]: 3.58 % of injected dose per gram of
biodistribution, Uterus (MEAN) [2, 7]: 0.93 % of injected dose per gram of
biodistribution, Adrenal glands (MEAN) [2, 8]: 18.50 % of injected dose per gram of
biodistribution, Brain (MEAN) [2, 8]: 0.29 % of injected dose per gram of
biodistribution, Fat (MEAN) [2, 8]: 3.85 % of injected dose per gram of
biodistribution, Heart (MEAN) [2, 8]: 4.41 % of injected dose per gram of
biodistribution, Intestine (MEAN) [2, 8]: 2.33 % of injected dose per gram of
biodistribution, Kidneys (MEAN) [2, 8]: 3.91 % of injected dose per gram of
biodistribution, Liver (MEAN) [2, 8]: 19.41 % of injected dose per gram of
Structure (SMILES): CCCCCCCC/C=C\CCCCCCC[14C](=O)O[C@H]1CC[C@@]2(C)C(=CC[C@H]3[C@@H]4CC[C@H]([C@H](C)CCCC(C)C)[C@@]4(C)CC[C@@H]32)C1 [[14C]CO, cholesteryl oleate]
